Data as given in patent US20260000642A1 (Tay Therapeutics Limited, priority 2022, published 2026).
Several values for one entry are separate records, joined by “and”; a condition that tells them apart may be missing. Equal values may be shown once.

Key:
[1] = test system: UUO renal fibrosis in rats; assay: Unilateral Urethral Obstruction (UUO) rat renal fibrosis model: body weight, clinical observations, nephropathy scores; type: in vivo; design: Glomerulosclerosis clinical score / Interstitial nephritis clinical score / Collagen fiber deposition clinical score / Nephropathy clinical score: scale not given here; conditions: for Body weight: individual animals ID 1-8; for Clinical Observation: — = no finding, cells wrap: soft/stool, Anal/dirty
Text: Unilateral Urethral Obstruction (UUO) is a complex model of renal fibrosis (RF) disease. RF is a common outcome in progressive chronic kidney diseases, characterized by excessive formation of internal scar tissue. Surgical obstruction of urine flow can be used to trigger this disease in rodents. The UUO model allows for evaluation of potential drugs as treatment for RF.
Experimental groups for the study are outlined in Table 10. […] Briefly, animals were anesthetized using a Zoletil/Xylazine mixture (20:1, v:v) for a final dose of 25 mg/kg. The operation area was disinfected with 75% alcohol before shaving. Rats in UUO group were exposed left ureter through a small incision on the left side of the abdomen and ligated with 3-0 silk at two locations about 0.5 cm below the renal hilum. The ureters of sham rats in Group 1 were manipulated but not ligated.
Starting on Day 0, animals in group 2 were administered daily doses of the vehicle for 14 days.
(§1) Clinical signs for all animals were monitored and recorded daily. Blind clinical nephropathy scores were conducted for all animals in the study. Glomerulosclerosis, interstitial nephritis, collagen fiber deposition, nephropathy were each assessed for all experimental rats, and a total clinical score was determined for each rat. The scoring system represented the degree or percentage of lesions in the whole kidney. Clinical score assessments were performed on Day 14.
Starting on Day 0, animals in group 2 were administered daily doses of the vehicle for 14 days. […] A design of the UUO study is depicted in FIG. 9B.
as §1, with “Blind” for “Clinical signs for all animals were monitored and recorded daily. Blind”, “deposition, and” for “deposition,”

[2] = Pharmacokinetics of Example 101 in Lewis rats (oral, CIA study); type: in vivo, Lewis rat
Method: Blood samples were collected from animals in group 8 on Day 0, and blood samples were collected from group 9 on Day 20. Blood samples from group 8 and group 9 were collected at 0.25, 0.5, 1, 2, 4, 8, 10, 12, 13, and 24-hours following morning administration of their first dose of the compound. The second dose of the compound was administered after the 8-hour collection timepoint. All blood samples were collected at the eye socket and put into tubes containing EDTA-K2 as an anticoagulant and centrifuged at 4° C. at 4,000×g for 5 minutes. Plasma was transferred to a separate tube and stored at −75±15° C. for PK analysis. Pharmacokinetic analyses for Example 101 in Lewis rats were performed as described in Experimental Method B.

UUO model: serum urea = type: in vivo, rat; conditions: UUO rats; 30 mg/kg; compared with sham and UUO + vehicle
Text: Serum for blood biochemistry analysis was collected into centrifuge tubes without coagulant four hours after final dosing. Blood plasma samples from group 3 was collected into tubes with K2EDTA four hours after final dosing. At the conclusion of the study (end of the 14-day period), animals were euthanized. Kidney tissue was collected four hours after final dosing. Ligated side kidney was divided into three copies 1/3 fix into 10% formalin for H&E analysis, 1/3 into RNA for PCR analysis of tissue biomarkers Col1a1, TGF-b1, MCP-1, IL-1b, IL-6, IL-17, TNF-a, and Timp1, and 1/3 for hydroxyproline assay analyzed by ELISA. RNA was extracted from tissue using the RNeasy mini kit (Qiagen). RNA concentration was measured using a NanoDrop One Spectrophotometer (ThermoFisher) and converted to cDNA using a High-Capacity RNA-to-cDNA kit (Invitrogen). RT-PCR was performed to measure levels of mRNA of different targets using TaqMan® Gene Expression Master Mix and TaqMan® probe/primer sets on a QuantStudio 6 Real-Time PCR System (ThermoFisher). Fold change in target gene expression was determined using the ΔΔCt method.

[3] = UUO rats, individual animals No. 1-8
[4] = day 0, 10 mg/kg, individual test subjects
[5] = day 20, 10 mg/kg, individual test subjects

## CNC(=O)c1[nH]c(C(=O)NC2CCC2)cc1O[C@@H](C)c1ccccc1 [Example 101, N^5-cyclobutyl-N^2-methyl-3-(1-phenylethoxy)-1H-pyrrole-2,5-dicarboxamide]
[1]; 30 mg/kg
  clinical symptoms associated with UUO (overall conclusion): ameliorates clinical symptoms associated with UUO
[1]; UUO rats, 30 mg/kg, Day 5, 30 mg/kg
  Body weight: 310 g
[1]; UUO rats, 30 mg/kg, Day 7, 30 mg/kg
  Body weight: 270 g
[1]; UUO rats, 30 mg/kg, Day 8, 30 mg/kg
  Body weight: 260 g and 290 g
[1]; UUO rats, 30 mg/kg, Day 10, 30 mg/kg
  Body weight: 330 g (2×) and 320 g
[1]; UUO rats, 30 mg/kg, Day 11, 30 mg/kg
  Body weight: 300 g and 330 g
[1]; UUO rats, 30 mg/kg, Day 12, 30 mg/kg
  Body weight: 260 g and 310 g and 300 g and 340 g
[1]; [3]
  Collagen fiber deposition clinical score: 2 (2×) and 1 (6×)
  Glomerulosclerosis clinical score: 0
  Interstitial nephritis clinical score: 3 (5×) and 2 (3×)
  Nephropathy clinical score: 2 (2×) and 1 (6×)
[1]; UUO rats, individual animals No. 1-8, Day 3
  Clinical Observation: diarrhea
[1]; UUO rats, individual animals No. 1-8, Day 5
  Clinical Observation: Anal
[1]; UUO rats, individual animals No. 1-8, Day 6
  Clinical Observation: Anal
[1]; UUO rats, individual animals No. 1-8, Day 7
  Clinical Observation: Anal
[1]; UUO rats, individual animals No. 1-8, Day 8
  Clinical Observation: soft
[1]; UUO rats, individual animals No. 1-8, Day 9
  Clinical Observation: soft
[1]; UUO rats, individual animals No. 1-8, Day 10
  Clinical Observation: soft
[1]; UUO rats, individual animals No. 1-8, Day 13
  Clinical Observation: soft
[1]; UUO rats, individual animals No. 1-8, Day 14
  Clinical Observation: Anal (2×) and soft
[1]; UUO rats, 30 mg/kg (FIG. 13B)
  interstitial nephritis in representative pathology staining: mild interstitial nephritis
[1]; UUO rats, 30 mg/kg, 14 days
  animals exhibiting diarrhea: One animal
  animals exhibiting dirty anuses: Three animals
  animals exhibiting soft stools: Four UUO rats
[1]; UUO rats, 30 mg/kg, BID at 0 and 8 hours, 14 days (group 3)
  body weight over the 14-day study: slight weight loss over the first seven days of the study, and then gained weight over the remaining seven days
[1]; UUO rats, 30 mg/kg, Day 14
  collagen fiber deposition score relative to UUO + vehicle: reduced
  interstitial nephritis score relative to UUO + vehicle: reduced
  nephropathy score relative to UUO + vehicle: reduced
  total clinical scores relative to UUO + vehicle: reduced
[2]; [4]
  AUClast/D: 820 kg·ng·h/mL/mg and 720 kg·ng·h/mL/mg
  Plasma concentration at 0.25 h: 375 ng/mL and 378 ng/mL and 754 ng/mL
  Plasma concentration at 24 h: 14.3 ng/mL and 35.6 ng/mL and 122 ng/mL
  T1/2: 2.13 h and 2.54 h and 5.01 h
  Tmax: 10.0 h (2×) and 2.00 h
[2]; day 0, 10 mg/kg, mean
  AUCInf, Mean: 15371 ng·h/mL
  AUClast, Mean: 15019 ng·h/mL
  AUClast/D, Mean: 751 kg·ng·h/mL/mg
  AUC—% Extrap_obs, Mean: 2.29%
  MRTInf_obs, Mean: 8.61 h
[2]; [5]
  AUC—% Extrap_obs: 0.700%
  Cmax: 1660 ng/mL
  Plasma concentration at 8 h: 103 ng/mL and 215 ng/mL and 188 ng/mL
  Plasma concentration at 24 h: 16.7 ng/mL and 20.1 ng/mL and 38.1 ng/mL
[2]; day 20, 10 mg/kg, mean
  AUClast/D, Mean: 528 kg·ng·h/mL/mg
  AUC—% Extrap_obs, Mean: 1.11%
  Cmax, Mean: 1707 ng/mL
  MRTInf_obs, Mean: 6.66 h
UUO model: serum urea
  serum urea levels: No significant differences
